Columns and labels:
[1] = test system: hyperpolarisation activated, cAMP-modulated cation current channels (HCN); details: cardiac conductive tissues; cited from earlier work
[2] = pharmacokinetic studies of oral cilobradine in cats; type: in vivo
Protocol: (§1) For example, the following dosages relevant for practicing the present invention with the bradycardic agent cilobradine in cats and dogs, have been determined in appropriate pharmacokinetic studies performed by the inventors. The single oral dose of cilobradine for potent heart rate reduction in cats is 0.2-0.4 mg/kg. The single oral dose of cilobradine for potent heart rate reduction in dogs is 0.3 mg/kg. […] Peak plasma levels are reached 0.5 hours after oral administration in cats and after 1 to 2 hours in dogs.

[3] = test system: cats suffering from asymptomatic HCM; test: clinical field study, echocardiography in cats suffering from asymptomatic HCM; type: in vivo; details: during treatment, days 3 and 6; orally once daily for 5 days; four cats; at baseline not possible in 2 of 4 cats
Protocol: The use according to the invention of an If channel blocker, namely cilobradine, was investigated in a clinical field study with cats suffering from asymptomatic HCM.
Four cats diagnosed as suffering from asymptomatic HCM by means of motion mode […] (left ventricular wall thickness>6 mm), received cilobradine orally once daily for 5 consecutive days. Detailed clinical examinations were conducted at baseline and on days 1, 2, 3, 6 and 9. ECG measurements were performed at baseline and on days 3 and 6 of the study.
The composition used in the experiment was as follows. • Oral solution containing 2 mg/ml cilobradine • Active ingredient added to 0.9% NaCl solution
The results of the experiment, measuring the left ventricular E to A ratios obtained at baseline and under cilobradine treatment, are shown in enclosed FIG. 1.

[4] = pharmacokinetic studies of oral cilobradine in dogs; type: in vivo
Protocol: as §1

Question: Which “Block of HCN channels (If current)” value [1] does the source give for `COc1ccc(CCN(C)CCCN2CCc3cc(OC)c(OC)cc3CC2=O)cc1OC` [zatebradine] here?
Answer: selectively block

Question: For `COc1ccc(CCN2CCCC(CN3CCc4cc(OC)c(OC)cc4CC3=O)C2)cc1OC` (centres unmarked) [cilobradine], which “Block of HCN channels (If current)” value [1] is on record?
Answer: selectively block

Question: And the “Time at which peak plasma levels are reached” value ([2]; after oral administration)?
Answer: 0.5 h

Question: And the “Absolute bioavailability of oral formulations” value ([2]; oral)?
Answer: 22.6%

Question: What about the “Single oral dose for potent heart rate reduction” value ([2]; oral) of the same molecule?
Answer: 0.2 to 0.4 mg/kg

Question: What about the “Calculation of left ventricular E/A ratios” value [3] of the same molecule?
Answer: possible in all cats

Question: What about the “Absolute bioavailability of oral formulations” value [4] of the same molecule?
Answer: 26-43%

Question: And the “Single oral dose for potent heart rate reduction” value [4]?
Answer: 0.3 mg/kg
